Source: the NIST ThermoML archive (doi:10.1021/acs.jced.6b00354)
Numbers after ± are expanded uncertainties.

Conditions: 101.33 kPa, Liquid, Vibrating tube method

CC(=O)N(C)C [N,N-dimethylethanamide]
Conditions | mass density [kg/m3]
283.15 K | 950.189 ± 0.077
288.15 K | 945.589 ± 0.079
293.15 K | 940.983 ± 0.081
298.15 K | 936.38 ± 0.084
303.15 K | 931.762 ± 0.086
308.15 K | 927.145 ± 0.088
313.15 K | 922.523 ± 0.09
318.15 K | 917.893 ± 0.093
